Results from the supplement of paper PMC11424490.

What was measured:
[1] = test system: SW837; experiment: relative IC50 of cell viability (CellTiter-Glo); higher = less potent
Procedure: (§1)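 CellTiter-Glo proliferation assay in KRAS G12C mutant NCI-H2122 (72 h), SW837 (144 h) and NCI-H358 cells in 384-well plates. Monotherapy dose response was fitted with a four-parameter curve after normalisation to DMSO controls (% of control, PoC). IC50 is the relative IC50, averaged over replicates. Bottom is the fitted lower plateau in %PoC; Max.Conc. is the top dose tested.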

[2] = test system: NCI-H2122; experiment: as above
Procedure: as §1

[3] = test system: SW837; experiment: fitted bottom plateau of viability curve, % of DMSO control; higher = less maximal inhibition; extreme values may be limits of the assay
In short: (§2)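 The NCI-H2122, SW837 and NCI-H358 cell lines were plated in 384-well format at 800, 500 and 500 cells/well respectively, in 60 µl. After a 24 h wait, single compounds were applied in dose series by acoustic dispensing, and plates were incubated 72 h, or 144 h in the case of SW837. Readout was CellTiter-Glo luminescence on an EnVision reader following 15 min shaking, normalised to DMSO controls. Both the relative IC50 (a mean over replicates) and the lower plateau derive from a four-parameter nonlinear fit.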

[4] = test system: NCI-H2122; experiment: as above
In short: as §2

relative IC50 of cell viability [1] [nM] | relative IC50 of cell viability [2] [nM] | SMILES | fitted bottom plateau of viability curve [3] [%] | fitted bottom plateau of viability curve [4] [%]
7020 | – | O=C(/C=C\n1cnc(-c2cc(C(F)(F)F)cc(C(F)(F)F)c2)n1)NNc1cnccn1 [KPT-330] (top concentration tested 50000 nM) | 20.6 | 91.8
– | 3430 | O=c1cc(N2CCOCC2)oc2c(-c3cccc4c3sc3ccccc34)cccc12 [NU-7441] (top concentration tested 10000 nM) | 70.7 | 42.8
1900 | – | CO[C@H]1CC[C@H](n2c([C@@H]3CCCC(=O)N3c3ccc(F)c(F)c3)nc3cc(-c4c(C)noc4C)ccc32)CC1 [CCS1477] (top concentration tested 10000 nM) | 36.9 | 77.8
– | 6690 | COc1ccccc1-c1cc(Nc2cccc(CS(N)(=O)=O)c2)ncn1 [LDC-067] (top concentration tested 10000 nM) | 87.9 | 47.3
– | 126 | COc1ncc(-c2nc3c(n2C(C)C)[C@H](c2ccc(Cl)cc2)N(c2cc(Cl)cn(C)c2=O)C3=O)c(OC)n1 [HDM-201] (top concentration tested 9999.9 nM) | 84.1 | 25.1
– | 1100 | Cc1ncc(NC(=O)c2cccc(C(F)(F)F)c2)cc1-c1cnc(OC2CCOCC2)c(N2CCOCC2)c1 [RAF-709] (top concentration tested 10000 nM) | 87.9 | 11.1
– | 200 | Cc1ccc(NC(=O)c2ccnc(C(F)(F)F)c2)cc1-c1cc(OCCO)nc(N2CCOCC2)c1 [LXH-254] (top concentration tested 1000 nM) | 94.2 | 63.6
– | 8090 | COc1cc2nccc(Oc3ccc(NC(=O)C4(C(=O)Nc5ccc(F)cc5)CC4)cc3)c2cc1OC [XL-184] (top concentration tested 9999.9 nM) | 55.8 | 35.3
– | 6060 | COc1cc(OC2CCN(C)CC2)ccc1Nc1ncc2c(n1)n(C1CCCC1)c(=O)n2C [AZ3146] (top concentration tested 10000 nM) | 57.4 | 39.4

Further lines, the compound ahead of its results:

SMILES | relative IC50 of cell viability [1] [nM] | relative IC50 of cell viability [2] [nM] | fitted bottom plateau of viability curve [3] [%] | fitted bottom plateau of viability curve [4] [%]
CNCc1ccc(-c2cc(-c3nc(-c4ccc(S(=O)(=O)C(C)C)cc4)cnc3N)on2)cc1 [VE-822/VX-970] (top concentration tested 9999.9 nM) | 807 | 278 | 2.47 | 0.375
NC(=O)c1cnc(N[C@@H]2CCCC[C@@H]2N)nc1Nc1cccc(-n2nccn2)c1 (top concentration tested 10000 nM) | 2110 | 3860 | 30.9 | 39.3
Cn1c(=O)n(-c2ccc(C(C)(C)C#N)cc2)c2c3cc(-c4cnc5ccccc5c4)ccc3ncc21 [NVP-BEZ235] (top concentration tested 999.9 nM) | 153 | 58.5 | 33.2 | 9.96
CN(NC(=O)CC(=O)NN(C)C(=S)c1ccccc1)C(=S)c1ccccc1 [Elesclomol] (top concentration tested 10000 nM) | 39 | 22.7 | 2.84 | 1.27
CC(=O)O[C@@]12CO[C@@H]1C[C@H](O)[C@@]1(C)C(=O)[C@H](O)C3=C(C)[C@@H](OC(=O)[C@H](O)[C@@H](NC(=O)OC(C)(C)C)c4ccccc4)C[C@@](O)([C@@H](OC(=O)c4ccccc4)[C@H]21)C3(C)C [Docetaxel] (top concentration tested 100.01 nM) | 2.73 | 1.68 | 22.5 | 4.04
CC(C)c1cc(-c2n[nH]c(=O)n2-c2ccc3c(ccn3C)c2)c(O)cc1O [Ganetespib] (top concentration tested 99.888 nM) | 87.1 | 11.2 | 0 | 8.33
CN1CC[C@H](c2c(O)cc(O)c3c(=O)cc(-c4ccccc4Cl)oc23)[C@H](O)C1 [Flavopiridol] (top concentration tested 500.11 nM) | 331 | 149 | 0 | 3.96
COc1cc([C@@H]2c3cc4c(cc3[C@@H](O[C@@H]3O[C@@H]5CO[C@@H](C)O[C@H]5[C@H](O)[C@H]3O)[C@H]3COC(=O)[C@H]23)OCO4)cc(OC)c1O [Etoposide] (top concentration tested 10000 nM) | 1340 | 995 | 14.5 | 51.5
Cc1[nH]c(/C=C2\C(=O)Nc3ccc(S(=O)(=O)Cc4c(Cl)cccc4Cl)cc32)c(C)c1C(=O)N1CCC[C@@H]1CN1CCCC1 (top concentration tested 10000 nM) | 2390 | 3030 | 1.78 | 0.553
Nc1ccn([C@@H]2O[C@H](CO)[C@@H](O)[C@@H]2O)c(=O)n1 [Cytarabin] (top concentration tested 999.93 nM) | 949 | 238 | 0 | 32.3
C/C=C1\NC(=O)[C@H]2CSSCC/C=C/[C@H](CC(=O)N[C@H](C(C)C)C(=O)N2)OC(=O)[C@H](C(C)C)NC1=O [Romidepsin] (top concentration tested 10000 nM) | 76.4 | 5.65 | 0.0763 | 0.385
COc1cc2cc(c1Cl)N(C)C(=O)C[C@H](OC(=O)C(C)C)[C@]1(C)O[C@@H]1[C@H](C)[C@@H]1C[C@@](O)(NC(=O)O1)[C@H](OC)/C=C/C=C(\C)C2 [Ansamitocin P3] (top concentration tested 99.976 nM) | 0.162 | 0.0585 | 26.7 | 3.79
O=C(CCCCCCC(=O)Nc1ccccc1)NO [Vorinostat] (top concentration tested 10000 nM) | – | 2440 | 25 | 10.7
CCOC(=O)CCNc1cc(N2CCc3ccccc3CC2)nc(-c2ccccn2)n1 [GSK-J4] (top concentration tested 50000 nM) | 12300 | 64800 | 28.7 | 61.7
CC(C)NC[C@@H](C(=O)N1CCN(c2ncnc3c2[C@H](C)C[C@H]3O)CC1)c1ccc(Cl)cc1 [Ipatasertib] (top concentration tested 10000 nM) | – | 642 | 85.8 | 57.9
Nc1nc2[nH]cc(CCc3ccc(C(=O)N[C@@H](CCC(=O)O)C(=O)O)cc3)c2c(=O)[nH]1 [Pemetrexed] (top concentration tested 10000 nM) | – | 21.4 | 90.7 | 43.3
CC[C@]1(O)C[C@@H]2CN(CCc3c([nH]c4ccccc34)[C@@](C(=O)OC)(c3cc4c(cc3OC)N(C)[C@H]3[C@@](O)(C(=O)OC)[C@H](OC(C)=O)[C@]5(CC)C=CCN6CC[C@]43[C@@H]65)C2)C1 [Vinblastine] (top concentration tested 99.992 nM) | 80.2 | 4.34 | 0 | 4.54
O=C(O)C(=O)O.[NH-][C@@H]1CCCC[C@H]1[NH-].[Pt+2] [Oxaliplatin] (top concentration tested 50000 nM) | 5890 | 9200 | 21 | 31.5
CCN(CC)CCNC(=O)c1c(C)[nH]c(/C=C2\C(=O)Nc3ccc(F)cc32)c1C [Sunitinib] (top concentration tested 9999.9 nM) | – | 4650 | 59.9 | 31.4
C[C@@H](Oc1cc(-c2cnn(C3CCNCC3)c2)cnc1N)c1c(Cl)ccc(F)c1Cl (top concentration tested 10000 nM) | – | 1230 | 31.9 | 4.25
N[C@@H](Cc1ccc(N(CCCl)CCCl)cc1)C(=O)O [Melphalan] (top concentration tested 10000 nM) | – | 2140 | 52.1 | 46.6
Cc1cn(-c2cc(NC(=O)c3ccc(C)c(Nc4nccc(-c5cccnc5)n4)c3)cc(C(F)(F)F)c2)cn1 [Nilotinib] (top concentration tested 10000 nM) | – | 2510 | 68.8 | 14
O=[N+]([O-])c1ccc(NCCNc2ncc(-c3ncc[nH]3)c(-c3ccc(Cl)cc3Cl)n2)nc1 (top concentration tested 10000 nM) | – | 8950 | 91.7 | 43.5
CCc1cccc(CC)c1NC(=O)c1nn(C)c2c1CCc1cnc(Nc3ccc(C(=O)NC4CCN(C)CC4)cc3OC(F)(F)F)nc1-2 [NMS-P715] (top concentration tested 10000 nM) | – | 3960 | 58.9 | 48.7
COc1cc(OC)c(/C=C/S(=O)(=O)Cc2ccc(OC)c(NCC(=O)O)c2)c(OC)c1 [Rigosertib] (top concentration tested 1000.1 nM) | – | 123 | 58.2 | 5.86
CC(C)C[C@@H](C(=O)N[C@H](C(=O)OC1CCCC1)c1ccccc1)[C@H](O)C(=O)NO [Tosedostat] (top concentration tested 9999.9 nM) | – | 776 | 92.2 | 51.2
